Test results published in patent US20220233594A1, “TARGETING OTUB1 IN IMMUNOTHERAPY” (Board of Regents, The University ofTexas System, priority 2019, published 2022).

Experiments:
Assay type in all cases: cell-based, mouse
[1] = test system: WT or Otub1-TKO naive OT-I CD8 T cells; experiment: qRT-PCR analysis of Glut1 and Hk2 expression with AKT inhibitor; details: stimulated with anti-CD3 plus anti-CD28; AKTi vs DMSO
Protocol: Real-time quantitative PCR. RNA was extracted with TRIzol reagent from isolated WT OT-I or Otub1-TKO OT-I CD8 T cells. The RNA samples were subjected to quantitative PCR analyses using the SYBR regent (Bio-Rad). The expression of individual genes was calculated by a standard curve method and was normalized to the expression of Actb.

[2] = test system: WT or Otub1-TKO naive OT-I CD8 T cells; experiment: ELISA of cytokines in culture supernatant with AKT inhibitor; details: stimulated with anti-CD3 plus anti-CD28 for 66 h; AKTi vs DMSO
Protocol: T-cell and NK cell purification and in vitro treatments. CD8 and CD4 T cells were isolated from splenocytes with anti-CD8- or anti-CD4-conjugated magnetic beads (Miltenyi), and naive CD8 or CD4 T cells were further purified by FACS sorting to get CD44^loCD62L^hi population. The naive T cells were stimulated in replicate wells of 96-well plates (1×10^5 cells per well) for 66 h, and the culture supernatants were analyzed by ELISA (eBioScience).

[3] = test system: WT or Otub1-TKO naive OT-I CD8 T cells; experiment: Seahorse analysis of extracellular acidification rate (ECAR) with AKT inhibitor; details: activated with anti-CD3 plus anti-CD28 for 24 h; AKTi 3 μM vs DMSO
Protocol: Metabolic assays. OCR and ECAR were measured with an XF96 extracellular flux analyzer (Seahorse Bioscience) following the manufacturer's instruction. Briefly, WT or Otub1-TKO CD8 naive T cells, either freshly isolated or in vitro activated with anti-CD3 plus anti-CD28 (for 24 h), were seeded in XF96 microplates (150,000 cells/well). The plates were quickly centrifuged to immobilize the cells. After incubation in a non-buffered assay medium (Seahorse Biosciences) in a non-CO2 incubator for 30 min, the cells were subjected to glycolysis assays with a XF glycolysis stress test kit (Seahorse Biosciences). Initial measurement of ECAR was done when cells were incubated in a glycolysis stress test medium without glucose to record the baseline. Glucose (10 mM) was then injected to induce ECAR, reflecting glycolysis rate under basal conditions. Subsequently, oligomycin (1 μM) was injected to inhibit mitochondrial ATP production and shift the energy production to glycolysis, thereby measuring the maximum glycolytic capacity (also called stressed ECAR). Finally, a glucose analog, 2-deoxy-glucose (2-DG, 100 mM) was injected to inhibit glycolysis through targeting glucose hexokinase, resulting in decreased ECAR that served as a measure to confirm the glycolysis-dependence of the detected ECAR. […]

O=c1[nH]c2ccccc2n1C1CCN(Cc2ccc(-c3nc4cc5[nH]cnc5cc4nc3-c3ccccc3)cc2)CC1 [AKTi]
Glut1 and Hk2 expression (qRT-PCR) [1]: blocked TCR-CD28-stimulated hyper-expression of the glycolysis-regulatory genes, Glut1 and Hk2
cytokine production (ELISA, culture supernatant) [2]: blocked
extracellular acidification rate (ECAR) [3]: erased the ECAR differences between WT and Otub1-TKO CD8 T cells
